Broadly, the IC50 is the concentration that gives 50% inhibition.

Molecules are shown by their SMILES. In brackets after ≈: the same amount, converted by molar mass. Bounds are passed on as bounds.

System in the first data set: not listed separately
As to the kind of experiment: MTT assay. It counts as cell-based. To be noted: human, HEK-293 cells (normal reference cell line), HEK-293 (normal cells), 24h, read-out: IC50, cytotoxicity. On the procedure:
(§1) Therefore, the whole set of compounds were tested by using MTT assay in order to check their overall cytotoxic effect. The growth of cells was monitored after 24 and 48 h of incubation with the increased concentrations (1–100 µg/ml) of the thiosemicarbazide derivatives. […] This confirms that the compounds tested combine different mechanisms of anticancer activity, and DNA topoisomerase II inhibition is only one of them.
(§2) Cytotoxicity of the synthesised compounds were examined against a panel of the cancer cell lines, MCF-7 (estrogen-dependent human breast cancer cells), MDA-MB-231 (oestrogen-independent human breast cancer cells), SCC- 25 (squamous cell carcinoma of the tongue), FaDu (squamous cell carcinoma of the pharynx), A- 549 (human lung carcinoma), AGS (human gastric adenocarcinoma), LS-180, HT-29 (colon cancer cell lines), T98G (glioblastoma cells), A375 (melanoma cells). Human embryonic kidney (HEK-293) cells and human normal skin fibroblasts (CRL-2072) were used as reference cell lines. The investigated cell lines were obtained from American Type Culture Collection (ATCC; Manassas, VA, USA). A375, MCF-7, MDA-MB-231, T98G cells were cultured in Dulbecco’s Modified Eagle’s Medium (DMEM) (Sigma Aldrich, St. Louis, MO, USA) supplemented with 10% heat inactivated foetal bovine serum (FBS), penicillin (100 U/mL), and streptomycin (100 μg/mL). SCC-25 cells were cultured in 1:1 mixture of Dulbecco’s modified Eagle’s medium and Ham’s F12 Medium (Sigma Aldrich, St. Louis, MO, USA) supplemented with 400 ng/ml hydrocortisone, 10% FBS, penicillin (100 U/mL), and streptomycin (100 μg/mL). A549 and AGS cells were maintained in F-12K Medium (Sigma Aldrich, St. Louis, MO, USA). LS-180 and FaDu cells were cultured in Eagle’s Minimum Essential Medium. HT-29 cells were maintained in McCoy’s 5 A Medium (Sigma Aldrich, St. Louis, MO, USA) supplemented with 10%FBS, penicillin (100 U/mL), and streptomycin (100 μg/mL). All the cells were maintained at 37 °C in a humidified atmosphere of 5% CO2.
(§3) The synthesised compounds were dissolved in DMSO in order to obtain stock solutions. At the day of the experiment, the suspension of cells (1 × 10^5 cells/mL) in the respective medium was applied to a 96-well plate at 100 μL per well. […] The control cells were cultured only with a medium containing 2% FBS. Cytotoxicity of DMSO was also checked at concentrations present in respective dilutions of stock solution. After 24 h (or 48 h) of incubation, 15 μL of MTT working solution (5 mg/mL in PBS) was added to each well. The plate was incubated for 3 h. Subsequently, 100 μL of 10% SDS solution was added to each well. Cells were incubated overnight at 37 °C to dissolve the precipitated formazan crystals. The concentration of the dissolved formazan was evaluated by measuring the absorbance at λ = 570 nm, using a microplate reader (Epoch, BioTek Instruments, Inc., Winooski, VT, USA). At least two independent experiments were performed in triplicates. The results of the MTT assay were expressed as mean ± SD. […] IC50 values of the investigated derivatives and standards were calculated using the IC50 calculator.[23]
Take `O=C(NNC(=S)NC(=O)c1ccccc1Cl)c1ccc(O)c([N+](=O)[O-])c1` [Compound 7, 4-(2-Chlorobenzoyl)-1-(4-hydroxy-3-nitrobenzoyl)thiosemicarbazide]: the half-maximal inhibitory concentration (IC50) at 24 h was determined as 67.2 µg/mL (≈ 170 µM).

Staying with this data set, now noted: human, HEK-293 cells (normal reference cell line), HEK-293 (normal cells), 48h, read-out: IC50, cytotoxicity.
For `O=C(NNC(=S)NC(=O)c1ccccc1Cl)c1ccc(O)c([N+](=O)[O-])c1` [Compound 7, 4-(2-Chlorobenzoyl)-1-(4-hydroxy-3-nitrobenzoyl)thiosemicarbazide], the IC50 at 48 h came to 32.7 µg/mL (≈ 82.8 µM).

The next data set concerns A375 (melanoma cells). Kind of data set: MTT assay. It counts as cell-based. To be noted: Homo sapiens, A-375, 24h, read-out: IC50, cytotoxicity. As for the experimental part:
as §1, §2, §3
A general note: Tetrazolium assays rely on reduction of a dye to a coloured formazan, in cell work by metabolically active cells.
For the compound `O=C(NNC(=S)NC(=O)c1ccccc1Cl)c1ccc(O)c([N+](=O)[O-])c1` [Compound 7, 4-(2-Chlorobenzoyl)-1-(4-hydroxy-3-nitrobenzoyl)thiosemicarbazide], the IC50 is over 100 µg/mL.

The same data set, now with this note: Homo sapiens, A-375, 48 h, read-out: IC50, cytotoxicity.
As to `O=C(NNC(=S)NC(=O)c1ccccc1Cl)c1ccc(O)c([N+](=O)[O-])c1` [Compound 7, 4-(2-Chlorobenzoyl)-1-(4-hydroxy-3-nitrobenzoyl)thiosemicarbazide], the IC50 was found to be 13.9 µg/mL (≈ 35.2 µM).

The next data set deals with A549 (human lung carcinoma). As to the kind of experiment: MTT assay. It counts as cell-based. Conditions: 24h, read-out: IC50, cytotoxicity. As for the experimental part: as §1, §2, §3
Take `O=C(NNC(=S)NC(=O)c1ccccc1Cl)c1ccc(O)c([N+](=O)[O-])c1` [Compound 7, 4-(2-Chlorobenzoyl)-1-(4-hydroxy-3-nitrobenzoyl)thiosemicarbazide]: the IC50 is over 100 µg/mL.

The same data set, now with this note: 48h, read-out: IC50, cytotoxicity.
Consider `O=C(NNC(=S)NC(=O)c1ccccc1Cl)c1ccc(O)c([N+](=O)[O-])c1` [Compound 7, 4-(2-Chlorobenzoyl)-1-(4-hydroxy-3-nitrobenzoyl)thiosemicarbazide], for which the IC50 was over 100 µg/mL.

The test system of the next data set is AGS (human gastric adenocarcinoma). Kind of data set: MTT assay. It counts as cell-based. To be noted: 24h, read-out: IC50, cytotoxicity. As for the experimental part:
as §1, §2, §3
Take `O=C(NNC(=S)NC(=O)c1ccccc1Cl)c1ccc(O)c([N+](=O)[O-])c1` [Compound 7, 4-(2-Chlorobenzoyl)-1-(4-hydroxy-3-nitrobenzoyl)thiosemicarbazide]: the IC50 is over 100 µg/mL.

Staying with this data set, now noted: 48 h, read-out: IC50, cytotoxicity.
Take `O=C(NNC(=S)NC(=O)c1ccccc1Cl)c1ccc(O)c([N+](=O)[O-])c1` [Compound 7, 4-(2-Chlorobenzoyl)-1-(4-hydroxy-3-nitrobenzoyl)thiosemicarbazide]: the IC50 was determined as 18.8 µg/mL (≈ 47.5 µM).

For a further data set, the system named is FaDu (squamous cell carcinoma of the pharynx). Kind of data set: MTT assay. The class given is cell-based. Conditions: Homo sapiens, 24h, read-out: IC50, cytotoxicity. As for the experimental part: as §1, §2, §3
On to `O=C(NNC(=S)NC(=O)c1ccccc1Cl)c1ccc(O)c([N+](=O)[O-])c1` [Compound 7, 4-(2-Chlorobenzoyl)-1-(4-hydroxy-3-nitrobenzoyl)thiosemicarbazide], for which the IC50 was found to be 33.5 µg/mL (≈ 84.9 µM).

The same data set, now with this note: Homo sapiens, 48 h, read-out: IC50, cytotoxicity.
Take `O=C(NNC(=S)NC(=O)c1ccccc1Cl)c1ccc(O)c([N+](=O)[O-])c1` [Compound 7, 4-(2-Chlorobenzoyl)-1-(4-hydroxy-3-nitrobenzoyl)thiosemicarbazide]: the IC50 was found to be 22.5 µg/mL (≈ 56.9 µM).

For the next data set, the system named is HT-29 (colon cancer cell line). Kind of data set: MTT assay. The class given is cell-based. To be noted: Homo sapiens; HT-29, MTT, 24h; read-out: IC50, cytotoxicity. As for the experimental part:
as §1, §2, §3
Regarding `O=C(NNC(=S)NC(=O)c1ccccc1Cl)c1ccc(O)c([N+](=O)[O-])c1` [Compound 7, 4-(2-Chlorobenzoyl)-1-(4-hydroxy-3-nitrobenzoyl)thiosemicarbazide], the IC50 is 47.4 µg/mL (≈ 120 µM).

Staying with this data set, now noted: Homo sapiens; HT-29, MTT, 48 h; read-out: IC50, cytotoxicity.
On to `O=C(NNC(=S)NC(=O)c1ccccc1Cl)c1ccc(O)c([N+](=O)[O-])c1` [Compound 7, 4-(2-Chlorobenzoyl)-1-(4-hydroxy-3-nitrobenzoyl)thiosemicarbazide], for which the half-inhibitory concentration (IC50) was 7.18 µg/mL (≈ 18.2 µM).

The next data set has as its system LS180 (colon cancer cell line). Kind of data set: MTT assay. The class given is cell-based. To be noted: Homo sapiens, 24h, read-out: IC50, cytotoxicity. As for the experimental part:
as §1, §2, §3
As for `O=C(NNC(=S)NC(=O)c1ccccc1Cl)c1ccc(O)c([N+](=O)[O-])c1` [Compound 7, 4-(2-Chlorobenzoyl)-1-(4-hydroxy-3-nitrobenzoyl)thiosemicarbazide], the IC50 was over 100 µg/mL.

The data set is the same for the next values; noted with them: Homo sapiens, 48 h, read-out: IC50, cytotoxicity.
As to `O=C(NNC(=S)NC(=O)c1ccccc1Cl)c1ccc(O)c([N+](=O)[O-])c1` [Compound 7, 4-(2-Chlorobenzoyl)-1-(4-hydroxy-3-nitrobenzoyl)thiosemicarbazide], the IC50 was determined as 24.7 µg/mL (≈ 62.5 µM).

For another data set, the system named is MCF-7 (estrogen-dependent human breast cancer cells). As to the kind of experiment: MTT assay. Conditions: MCF7, MCF-7, MTT, 24h, read-out: IC50, cytotoxicity. The class given is cell-based. As for the experimental part: as §1, §2, §3
For `O=C(NNC(=S)NC(=O)c1ccccc1Cl)c1ccc(O)c([N+](=O)[O-])c1` [Compound 7, 4-(2-Chlorobenzoyl)-1-(4-hydroxy-3-nitrobenzoyl)thiosemicarbazide], the IC50 was over 100 µg/mL.

Staying with this data set, now noted: MCF7, MCF-7, MTT, 48h, read-out: IC50, cytotoxicity.
On to `O=C(NNC(=S)NC(=O)c1ccccc1Cl)c1ccc(O)c([N+](=O)[O-])c1` [Compound 7, 4-(2-Chlorobenzoyl)-1-(4-hydroxy-3-nitrobenzoyl)thiosemicarbazide], for which the IC50 worked out at 24.8 µg/mL (≈ 62.9 µM).

Another data set relates to MDA-MB-231 (estrogen-independent human breast cancer cells). As to the kind of experiment: MTT assay. The class given is cell-based. Conditions: MDA-MB-231, MTT, 24h, read-out: IC50, cytotoxicity. On the procedure:
as §1, §2, §3
As to `O=C(NNC(=S)NC(=O)c1ccccc1Cl)c1ccc(O)c([N+](=O)[O-])c1` [Compound 7, 4-(2-Chlorobenzoyl)-1-(4-hydroxy-3-nitrobenzoyl)thiosemicarbazide], the IC50 was over 100 µg/mL.

Staying with this data set, now noted: MDA-MB-231, MTT, 48h, read-out: IC50, cytotoxicity.
For the compound `O=C(NNC(=S)NC(=O)c1ccccc1Cl)c1ccc(O)c([N+](=O)[O-])c1` [Compound 7, 4-(2-Chlorobenzoyl)-1-(4-hydroxy-3-nitrobenzoyl)thiosemicarbazide], the half-maximal inhibitory concentration (IC50) was 69.4 µg/mL (≈ 176 µM).

The next data set relates to SCC-25 (squamous cell carcinoma of the tongue). As to the kind of experiment: MTT assay. It counts as cell-based. To be noted: Homo sapiens; SCC-25, MTT, 24h; read-out: IC50, cytotoxicity. As for the experimental part: as §1, §2, §3
In the case of `O=C(NNC(=S)NC(=O)c1ccccc1Cl)c1ccc(O)c([N+](=O)[O-])c1` [Compound 7, 4-(2-Chlorobenzoyl)-1-(4-hydroxy-3-nitrobenzoyl)thiosemicarbazide], the IC50 is 42.4 µg/mL (≈ 107 µM).

The same data set, now with this note: Homo sapiens; SCC-25, MTT, 48 h; read-out: IC50, cytotoxicity.
Consider `O=C(NNC(=S)NC(=O)c1ccccc1Cl)c1ccc(O)c([N+](=O)[O-])c1` [Compound 7, 4-(2-Chlorobenzoyl)-1-(4-hydroxy-3-nitrobenzoyl)thiosemicarbazide], for which the IC50 was found to be 24.3 µg/mL (≈ 61.6 µM).

The subject of a further data set is T98G (glioblastoma cells). As to the kind of experiment: MTT assay. It counts as cell-based. To be noted: Homo sapiens, 24h, read-out: IC50, cytotoxicity. As for the experimental part: as §1, §2, §3
Regarding `O=C(NNC(=S)NC(=O)c1ccccc1Cl)c1ccc(O)c([N+](=O)[O-])c1` [Compound 7, 4-(2-Chlorobenzoyl)-1-(4-hydroxy-3-nitrobenzoyl)thiosemicarbazide], the IC50 was 11.4 µg/mL (≈ 29 µM).

The data set is the same for the next values; noted with them: Homo sapiens, 48h, read-out: IC50, cytotoxicity.
For the compound `O=C(NNC(=S)NC(=O)c1ccccc1Cl)c1ccc(O)c([N+](=O)[O-])c1` [Compound 7, 4-(2-Chlorobenzoyl)-1-(4-hydroxy-3-nitrobenzoyl)thiosemicarbazide], the concentration for half-maximal inhibition (IC50) was determined as 10.7 µg/mL (≈ 27 µM).

The values are drawn from publication PMC9648375, “Identification of the first-in-class dual inhibitors of human DNA topoisomerase IIα and indoleamine-2,3-dioxygenase 1 (IDO 1) with strong anticancer properties” (Journal of Enzyme Inhibition and Medicinal Chemistry, 2022).
